Where two headings read alike, the source gives them in different places.
Legend:
Format in all cases: cell-based
[1] = molecular target: T1, recombinant human ghrelin receptor (HEK293/GRLN) (Homo sapiens, UniProt Q92847); experiment: Ghrelin inverse agonist potency (EC50) with IP-1 (IP-One HTRF) assay; conditions: IP-1 assay
T1 construct: expressed in transfected cells
Summary of the method: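 HEK293/GRLN cells were seeded 18-22 hours before the test, then exposed to compound in stimulation buffer for 1 hour at 37° C, 5% CO2. IP-1 was detected by IP-One HTRF (IP1-d2 plus Tb-cryptate, 1 hour RT), reading 620 and 665 nm; the inverse agonist EC50 was derived from this.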

[2] = molecular target: T2, GHSR-1a (HEK293/GHSR1a cell line) (Homo sapiens, UniProt Q92847); experiment: Ghrelin agonist potency (EC50) with calcium FLIPR assay
T2 construct: expressed in transfected cells; host or cells: HEK293/GHSR1a cell line
T2 sequence (Q92847 whole entry): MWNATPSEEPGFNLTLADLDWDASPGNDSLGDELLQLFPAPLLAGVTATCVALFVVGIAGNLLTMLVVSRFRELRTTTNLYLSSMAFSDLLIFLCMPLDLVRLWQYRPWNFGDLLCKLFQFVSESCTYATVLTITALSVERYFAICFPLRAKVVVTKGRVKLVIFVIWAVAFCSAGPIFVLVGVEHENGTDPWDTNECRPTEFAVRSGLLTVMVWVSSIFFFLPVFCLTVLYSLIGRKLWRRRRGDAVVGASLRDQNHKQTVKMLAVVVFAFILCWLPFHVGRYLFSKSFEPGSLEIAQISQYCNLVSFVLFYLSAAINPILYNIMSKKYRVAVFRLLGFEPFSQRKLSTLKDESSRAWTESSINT
Summary of the method: (§1)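 Dye preload 30-60 min, RT or 37° C; compound in DMSO. Agonist mode: compound at t=20 sec, Ca2+ read 2 min. Antagonist mode: compound + ghrelin 10 nM at t=20 sec, 2 min read. EC50/IC50 from dose-response curves.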

[3] = molecular target: T2, GHSR-1a (HEK293/GHSR1a cell line); experiment: Ghrelin antagonist potency (IC50) with calcium FLIPR assay, ghrelin 10 nM
Summary of the method: as §1

[4] = HEK293/GRLN, read-out: Activity EC50 (ghrelin inverse agonist potency)
[5] = HEK293/GHSR1a, read-out: Activity EC50/EMax: EC50 (ghrelin agonist potency)
[6] = HEK293/GHSR1a, ghrelin 10 nM, read-out: Activity IC50 (ghrelin antagonist potency)
[7] = ghrelin inverse agonist potency, read-out: Activity EC50
[8] = ghrelin agonist potency, read-out: Activity EC50/EMax
[9] = ghrelin antagonist potency, read-out: Activity IC50

T1 sequence (Q92847 whole entry): as above

| Structure (SMILES) | EC50 [1, 4] [µM] | EC50 [2, 5] [µM] | IC50 [3, 6] [µM] | EC50 [1, 7] [µM] | EC50 [2, 8] [µM] | IC50 [3, 9] [µM] | EC50 ([2]; heading: Activity EC50/EMax, ghrelin agonist potency, read-out: Activity EC50/EMax) [µM] |
| --- | --- | --- | --- | --- | --- | --- | --- |
| COc1cc(S(=O)(=O)Cc2ccc3c(c2)CCN(C)C3)ccc1NC(=O)NC(C)c1c(F)cccc1F (stereo not drawn) [H1436, 1-(1-(2,6-difluorophenyl)ethyl)-3-(2-methoxy-4-(((2-methyl-1,2,3,4-tetrahydroisoquinolin-6-yl)methyl)sulfonyl)phenyl)urea] | 0.0043 | > 30 | 0.0195 | – | – | – | – |
| CC(NC(=O)Nc1ccc(S(=O)(=O)Cc2cc3c(s2)CNC3)cc1)c1ccccc1 (stereo not drawn) [H1320, 1-(4-(((5,6-dihydro-4H-thieno[2,3-c]pyrrol-2-yl)methyl)sulfonyl)phenyl)-3-(1-phenylethyl)urea] | 0.0433 | > 30 | 0.0584 | – | – | – | – |
| C[C@H](NC(=O)Nc1ccc(S(=O)(=O)CC2CCNCC2)cc1)c1ccccc1 [H1303, (S)-1-(1-phenylethyl)-3-(4-((piperidin-4-ylmethyl)sulfonyl)phenyl)urea] | > 30 | > 30 | > 30 | – | – | – | – |
| CC(c1ccccc1)N(C)C(=O)Nc1ccc(S(=O)(=O)Cc2ccc3c(c2)CCNC3)cc1F (stereo not drawn) [H1414, 3-(2-fluoro-4-(((1,2,3,4-tetrahydroisoquinolin-6-yl)methyl)sulfonyl)phenyl)-1-methyl-1-(1-phenylethyl)urea] | 0.589 | > 30 | 2.09 | – | – | – | – |
| COc1ccc([C@@H](C)NC(=O)Nc2ccc(S(=O)(=O)Cc3ccc4c(c3)CCN(C)C4)cc2F)c(Cl)c1Cl [H1423, (R)-1-(1-(2,3-dichloro-4-methoxyphenyl)ethyl)-3-(2-fluoro-4-(((2-methyl-1,2,3,4-tetrahydroisoquinolin-6-yl)methyl)sulfonyl)phenyl)urea] | 0.00377 | > 30 | 0.114 | – | – | – | – |
| CC(NC(=O)Nc1ccc(S(=O)(=O)CC2=CC3CCC(C2)N3)cc1)c1cccc(Cl)c1Cl (stereo not drawn) [H1488, 1-(4-(((8-azabicyclo[3.2.1]oct-2-en-3-yl)methyl)sulfonyl)phenyl)-3-(1-(2,3-dichlorophenyl)ethyl)urea] | – | – | – | 0.668 | > 30 | 2.05 | – |
| CC(c1ccccc1)n1c(=O)[nH]c2ccc(S(=O)(=O)Cc3ccc4c(c3)CN(C)C4)cc2c1=O (stereo not drawn) [H1470, 6-(((2-methylisoindolin-5-yl)methyl)sulfonyl)-3-(1-phenylethyl)quinazoline-2,4(1H,3H)-dione] | – | – | – | 0.0223 | – | 0.483 | 0.227 |
| COc1ccc(C(C)NC(=O)Nc2ccc(S(=O)(=O)Cc3ccc4c(c3)CNC4)cc2)cc1OC (stereo not drawn) [H1444, 1-(1-(3,4-dimethoxyphenyl)ethyl)-3-(4-((isoindolin-5-ylmethyl)sulfonyl)phenyl)urea] | 0.185 | > 30 | 2.86 | – | – | – | – |
| C[C@@H](NC(=O)Nc1ccc(S(=O)(=O)Cc2ccc(C3CCCN3)cc2)cc1)c1ccccc1 (stereo partly drawn) [H1332, 1-((R)-1-phenylethyl)-3-(4-((4-(pyrrolidin-2-yl)benzyl)sulfonyl)phenyl)urea] | 0.0421 | > 30 | 0.0732 | – | – | – | – |
| CCN(CC)Cc1ccc(CS(=O)(=O)c2ccc(NC(=O)NC(C)c3ccccc3)cc2)cc1 (stereo not drawn) [H1304, 1-(4-((4-((diethylamino)methyl)benzyl)sulfonyl)phenyl)-3-(1-phenylethyl)urea] | 0.182 | > 30 | 0.145 | – | – | – | – |
| CC(NC(=O)Nc1ccc(S(=O)(=O)Cc2ccc3c(c2)CNC3)cc1-c1cccnc1)c1ccccc1 (stereo not drawn) [H1533, 1-(4-((isoindolin-5-ylmethyl)sulfonyl)-2-(pyridin-3-yl)phenyl)-3-(1-phenylethyl)urea] | – | – | – | 0.0762 | > 30 | 1.7 | – |
| CC(NC(=O)Nc1ccc(S(=O)(=O)Cc2ccc3c(c2)CN(C)C3)cc1)c1ccc2c(c1)OCO2 (stereo not drawn) [H1453, 1-(1-(benzo[d][1,3]dioxol-5-yl)ethyl)-3-(4-(((2-methylisoindolin-5-yl)methyl)sulfonyl)phenyl)urea] | 0.0468 | > 30 | 0.109 | – | – | – | – |
| CC(NC(=O)Nc1ccc(S(=O)(=O)Cc2ccc3c(c2F)CCN(C)C3)cc1)c1cccc(Cl)c1Cl (stereo not drawn) [H1367, 1-(1-(2,3-dichlorophenyl)ethyl)-3-(4-(((5-fluoro-2-methyl-1,2,3,4-tetrahydroisoquinolin-6-yl)methyl)sulfonyl)phenyl)urea] | 0.0033 | > 30 | 0.0212 | – | – | – | – |
| C[C@H](NC(=O)Nc1ccc(S(=O)(=O)Nc2ccc3c(c2)CCN(C)C3)cc1)c1cccc(Cl)c1Cl [H1352, (S)-4-(3-(1-(2,3-dichlorophenyl)ethyl)ureido)-N-(2-methyl-1,2,3,4-tetrahydroisoquinolin-6-yl)benzenesulfonamide] | 0.0077 | > 30 | 0.0046 | – | – | – | – |
| CC(NC(=O)Nc1ccc(S(=O)(=O)Cc2ccc3c(c2)C[N+](C)([O-])C3)cc1)c1ccccc1 (stereo not drawn) [H1350, 2-methyl-5-(((4-(3-(1-phenylethyl)ureido)phenyl)sulfonyl)methyl)isoindoline 2-oxide] | 7.46 | > 30 | 18.2 | – | – | – | – |
| COc1cc(S(=O)(=O)Cc2ccc3c(c2)CC(C)NC3)ccc1NC(=O)N(O)C(C)c1ccccc1 (stereo not drawn) [H1524, 1-hydroxy-3-(2-methoxy-4-(((3-methyl-1,2,3,4-tetrahydroisoquinolin-6-yl)methyl)sulfonyl)phenyl)-1-(1-phenylethyl)urea] | – | – | – | 0.0126 | > 30 | 0.00977 | – |
| COc1cc(S(=O)(=O)Cc2ccc3c(c2)CN(C)C3)ccc1NC(=O)NC(C)c1ccccc1OC (stereo not drawn) [H1438, 1-(2-methoxy-4-(((2-methylisoindolin-5-yl)methyl)sulfonyl)phenyl)-3-(1-(2-methoxyphenyl)ethyl)urea] | 0.00276 | > 30 | 0.0126 | – | – | – | – |
| CN1Cc2ccc(CS(=O)(=O)c3ccc(NC(=O)NC4CNc5ccccc54)cc3)cc2C1 (stereo not drawn) [H1358, 1-(indolin-3-yl)-3-(4-(((2-methylisoindolin-5-yl)methyl)sulfonyl)phenyl)urea] | 1.82 | > 30 | 1.88 | – | – | – | – |
| CC(c1ccccc1)N(C)C(=O)Nc1ccc(S(=O)(=O)Cc2ccc3c(c2)CN(C)C3)cc1O (stereo not drawn) [H1474, 3-(2-hydroxy-4-(((2-methylisoindolin-5-yl)methyl)sulfonyl)phenyl)-1-methyl-1-(1-phenylethyl)urea] | – | – | – | 0.133 | > 30 | 0.7 | – |
| C[C@H](NC(=O)Nc1ccc(S(=O)(=O)Cc2nc3c(s2)CNC3)cc1)c1ccccc1 [H1465, (S)-1-(4-(((5,6-dihydro-4H-pyrrolo[3,4-d]thiazol-2-yl)methyl)sulfonyl)phenyl)-3-(1-phenylethyl)urea] | – | – | – | 0.678 | > 30 | 5.29 | – |
| CC(NC(=O)Nc1ccc(S(=O)(=O)Cc2ccc3c(c2)CNC3)c(-c2ncco2)c1)c1ccccc1 (stereo not drawn) [H1507, 1-(4-((isoindolin-5-ylmethyl)sulfonyl)-3-(oxazol-2-yl)phenyl)-3-(1-phenylethyl)urea] | – | – | – | 0.0197 | > 30 | 0.0129 | – |
| CC(NC(=O)Nc1ccc2c(c1)S(=O)(=O)C(c1ccc3c(c1)CNC3)C2=O)c1ccccc1 (stereo not drawn) [H1522, 1-(2-(isoindolin-5-yl)-1,1-dioxido-3-oxo-2,3-dihydrobenzo[b]thiophen-6-yl)-3-(1-phenylethyl)urea] | – | – | – | 1.89 | > 30 | 3.85 | – |
| CC(NC(=O)N(C)c1ccc(S(=O)(=O)Cc2ccc3c(c2)CN(C)C3)cc1)c1ccccc1 (stereo not drawn) [H1377, 1-methyl-1-(4-(((2-methylisoindolin-5-yl)methyl)sulfonyl)phenyl)-3-(1-phenylethyl)urea] | 0.384 | > 30 | 5.52 | – | – | – | – |
| CC(NC(=O)Nc1ccc(S(=O)(=O)Cc2ccc3c(c2)CNC3)c(C(=O)O)c1)c1ccccc1 (stereo not drawn) [H1530, 2-((isoindolin-5-ylmethyl)sulfonyl)-5-(3-(1-phenylethyl)ureido)benzoic acid] | – | – | – | 0.784 | > 30 | 0.614 | – |
| CC(NC(=O)Nc1ccc(S(=O)(=O)Cc2ccc3c(c2)CNC3)cc1F)c1ccccc1 (stereo not drawn) [H1316, 1-(2-fluoro-4-((isoindolin-5-ylmethyl)sulfonyl)phenyl)-3-(1-phenylethyl)urea] | 0.0116 | > 30 | 0.0309 | – | – | – | – |
| COc1cc(S(=O)(=O)Cc2ccc3c(c2)CCN(C)C3)ccc1NC(=O)N[C@H](C)c1ccc(OC)c(Cl)c1Cl [H1422, (R)-1-(1-(2,3-dichloro-4-methoxyphenyl)ethyl)-3-(2-methoxy-4-(((2-methyl-1,2,3,4-tetrahydroisoquinolin-6-yl)methyl)sulfonyl)phenyl)urea] | 0.0007 | > 30 | 0.0294 | – | – | – | – |
| C[C@@H](NC(=O)Nc1ccc(S(=O)(=O)Cc2ccc3c(c2)C(F)CN(C)C3)cc1)c1ccccc1 (stereo partly drawn) [H1539, 1-(4-(((4-fluoro-2-methyl-1,2,3,4-tetrahydroisoquinolin-6-yl)methyl)sulfonyl)phenyl)-3-((R)-1-phenylethyl)urea] | – | – | – | 0.263 | > 30 | 8.05 | – |

From patent publication US10501479B2, “Benzenesulfonyl-asymmetric ureas and medical uses thereof” (HELSINN HEALTHCARE SA, priority 2016, dated 2019)
